These results are taken from the NIST ThermoML archive (doi:10.1016/j.fluid.2005.05.015).

Molecules are shown by their SMILES. ± gives the expanded uncertainty stated by the source.

For the data set the following is noted: Crystal 1; visual observation.

For the compound `CC[N+](C)(C)CCO.[Br-]` [ethyl(2-hydroxyethyl)dimethylammonium bromide], the Normal melting temperature turned out to be 268.30 ± 1 °C.
